Values belong to the compound of their own block, whether it stands above or below them.
Legend:
Caco-2 = assay: Anticancer activity against human Caco-2 cells assessed as inhibition of cell growth; type: functional, cell-based
KB 3-1 = assay: Anticancer activity against human KB 3-1 cells assessed as inhibition in cell growth; type: functional, cell-based
HT-29 [1] = assay: Anticancer activity against human HT-29 cells assessed as cell growth inhibition; type: functional, cell-based
HepG2 [2] = assay: Anticancer activity against human HepG2 cells assessed as inhibition of cell growth; type: functional, cell-based
HepG2 [3] = assay: Anticancer activity against human HepG2 cells assessed as inhibition of cell growth incubated for 48 hrs by crystal violet staining based microplate reader analysis; type: functional; conditions: HepG2, 48 h
HCT-116 [4] = assay: Anticancer activity against human HCT-116 cells assessed as inhibition of cell growth measured after 72 hrs by MTT assay; type: functional, cell-based; conditions: HCT-116, 72 h
[5] = Antiproliferative activity against mouse Pheochromocytoma cells(MPC) assessed as reduction in relative cell viability at 50 uM incubated for 24 hrs by proliferation assay relative to control; type: functional
HeLa = assay: Antiproliferative activity against human HeLa cells assessed as cell viability measured after 24 hrs by MTT assay; type: functional, cell-based
[6] = Antiproliferative activity against mouse Pheochromocytoma cells(MTT) assessed as reduction in relative cell viability at 25 uM incubated for 24 hrs by proliferation assay; type: functional
[7] = Antiproliferative activity against mouse Pheochromocytoma cells(MTT) assessed as reduction in relative cell viability incubated for 24 hrs by proliferation assay; type: functional, cell-based
[8] = Antiproliferative activity against mouse Pheochromocytoma cells(MPC) assessed as reduction in relative cell viability at 25 uM incubated for 24 hrs by proliferation assay relative to control; type: functional
[9] = Antiproliferative activity against mouse Pheochromocytoma cells(MTT) assessed as reduction in relative cell viability at 50 uM incubated for 24 hrs by proliferation assay; type: functional
HCT-116 [10] = assay: Anticancer activity against human HCT-116 cells assessed as inhibition of cell growth incubated for 72 hrs by MTT assay; type: functional, cell-based; conditions: HCT-116, 72 h
A549 [11] = assay: Anticancer activity against human A549 cells assessed as cell growth inhibition; type: functional, cell-based
SK-MEL-28 = assay: Anticancer activity against human MEL-28 cells assessed as cell growth inhibition; type: functional, cell-based
P388 [12] = assay: Anticancer activity against mouse P388 cells assessed as cell growth inhibition; type: functional, cell-based
MDA-MB-231 [13] = assay: cells; conditions: Homo sapiens, MDA-MB-231, 72 h
Description: Anticancer activity against human MDA-MB-231 cells assessed as inhibition of cell growth measured after 72 hrs by SRB assay

A549 [14] = assay: cells; conditions: Homo sapiens, A549, 72 h
Description: Anticancer activity against human A549 cells assessed as inhibition of cell growth measured after 72 hrs by SRB assay

HT-29 [15] = assay: cells; conditions: Homo sapiens, HT-29, 72 h
Description: Anticancer activity against human HT-29 cells assessed as inhibition of cell growth measured after 72 hrs by SRB assay

P388 [16] = assay: Anticancer activity against mouse p-388 cells assessed as cell growth inhibition incubated for 3 days; type: functional, cell-based; conditions: P388, 72 h
Homo sapiens = species on record: Homo sapiens; assay: Inhibition of actin (unknown origin) polymerization at 1 uM incubated for 20 mins in presence of ATP by ELISA analysis relative to control
[17] = Inhibition of actin (unknown origin) polymerization incubated for 20 mins in presence of ATP by ELISA analysis; design: species or system Homo sapiens
[18] = Inhibition of actin (unknown origin) polymerization at 100 nM incubated for 20 mins in presence of ATP by ELISA analysis relative to control; conditions: Homo sapiens
MDA-MB-231 [19] = assay: Anticancer activity against human MDA-MB-231 cells assessed as inhibition of cell growth incubated for 72 hrs by MTT assay; type: functional, cell-based; conditions: MDA-MB-231, 72 h
MCF7 [20] = assay: Anticancer activity against human MCF7 cells assessed as inhibition of cell growth incubated for 72 hrs by MTT assay; type: functional, cell-based; conditions: MCF7, 72 h
MCF7 [21] = assay: Potency index, ratio of latrunculin IC50 to test compound IC50 for cytotoxicity against human MCF7 cells; type: functional
MDA-MB-231 [22] = assay: Antimigratory activity against human MDA-MB-231 cells assessed as inhibition of cell migration at 2 uM incubated for 24 hrs by […] relative to control; type: functional; design: scale not given: the % may be the effect or the level left
MDA-MB-231 [23] = assay: Anticancer activity against human MDA-MB-231 cells assessed as cell viability measured after 24 hrs by MTT assay; type: functional, cell-based; conditions: MDA-MB-231, 24 h
MDA-MB-231 [24] = assay: Antimigratory activity against human MDA-MB-231 cells assessed as inhibition of cell migration at 10 uM incubated for 24 hrs by scratch wound healing assay relative to control; type: functional; design: scale not given: the % may be the effect or the level left

Structure (SMILES): CC(/C=C/c1ccccc1)=C\[C@H](O)[C@@H]1CCC(=O)N[C@@H](CO)C(=O)NC2C[n+]3cc(n([C@@H]4O[C@H](CO)[C@H](O)[C@H](O)[C@H]4O)c3)CC(NC(=O)CCC[C@@H](C(=O)[O-])NC(=O)[C@@H](O)CNC(=O)[C@H](Cc3ccc(Br)cc3)NC(=O)[C@H]([C@@H](O)C(N)=O)NC(=O)[C@H](CC(N)=O)NC2=O)C(=O)N[C@@H]([C@@H](C)O)C(=O)N[C@@H](CO)C(=O)N[C@@H](Cc2ccccc2)C(=O)N1 (some centres undefined)
- IC50 (HCT-116 [4]): 6 µM

Structure (SMILES): COC1=C(Br)[C@H](O)[C@@]2(C=C1Br)CC(C(=O)NCCCCNC(=O)C1=NO[C@]3(C=C(Br)C(OC)=C(Br)[C@@H]3O)C1)=NO2 [AEROTHIONIN]
- Activity [5]: 55.1%
- IC50 (HeLa): 29 µM
- Activity [6]: 82.8%
- EC50 [7]: 48.1 µM
- Activity [8]: 83.7%
- Activity [9]: 48.3%

Structure (SMILES): CC(C)[C@@H](C)/C=C/[C@@H](C)[C@H]1CC[C@H]2C3=C(CC[C@]12C)[C@@]1(C)CC[C@H](O)CC1=CC3=O
- IC50 (HCT-116 [10]): 40 µM

Structure (SMILES): COc1cccc2c1C(=O)c1c(O)c3c(c(O)c1C2=O)C[C@@](O)(C(=O)CO)C[C@@H]3O[C@H]1C[C@H](N)[C@H](O)[C@H](C)O1 [DOXORUBICIN]
- IC50 (MDA-MB-231 [13]): 0.3 µM
- IC50 (A549 [14]): 0.35 µM
- IC50 (HT-29 [15]): 0.4 µM

Structure (SMILES): CC[C@H]1CCCC[C@@]2(C[C@@H]3CC[C@@H]4[C@H](C(=O)OCCCCCCCCCCCCCCCC(=O)N(CCCN)CCCCN)[C@]5(CCC[C@@H](C)O5)NC(=[N+]34)N2)O1
- IC50 (P388 [16]): 0.1 µg/mL

Structure (SMILES): C/C1=C/C(=O)O[C@@H]2C[C@@H](CC[C@H](C)/C=C\C=C\CC1)O[C@@](O)([C@@H]1CSC(=O)N1CO)C2
- inhibition (Homo sapiens): 90%
- IC50 [17]: 210 nM
- inhibition [18]: 35%
- IC50 (MDA-MB-231 [19]): 2990 nM
- IC50 (MCF7 [20]): 120 nM
- Ratio IC50 (MCF7 [21]): 4

Structure (SMILES): C/C1=C/C(=O)O[C@@H]2C[C@@H](CC[C@H](C)/C=C\C=C\CC1)O[C@@](OCCc1ccccc1)([C@@H]1CSC(=O)N1)C2
- inhibition (Homo sapiens): 94%
- IC50 [17]: 184 nM
- inhibition [18]: 31%
- IC50 (MDA-MB-231 [19]): 2710 nM
- IC50 (MCF7 [20]): 100 nM
- Ratio IC50 (MCF7 [21]): 4.8

Second part, led by results:

- IC50 (Caco-2): 26.6 µM
- IC50 (KB 3-1): 5.1 nM
- IC50 (HT-29 [1]): 4480 nM
- IC50 (HepG2 [2]): 24 µM
Structure (SMILES): CC1=CC[C@H]2[C@@H]([C@@H]1CC[C@H]1[C@]3(C)CC[C@H](O)C(C)(C)O[C@H]3CC[C@]1(C)O)C(C)(C)CC[C@]2(C)O [SIPHOLENOL L]

- IC50 (HepG2 [3]): 6.9 nM
Structure (SMILES): CC1=CCC2C(CC[C@@]2(C)O)C(C)(C)[C@@H]1CC[C@H]1[C@@](C)(O)CCC2OC(C)(C)C(=O)CC[C@@]21C (some centres undefined)

- IC50 (HT-29 [1]): 1180 nM
- IC50 (A549 [11]): 1180 nM
- IC50 (SK-MEL-28): 1180 nM
- IC50 (P388 [12]): 1180 nM
Structure (SMILES): C=C1CCC[C@@H]2[C@@](C)(CC[C@@]3(C)CCn4cnc5ncnc(c54)N3O)[C@H](C)CC[C@@]12C

- IC50 (MDA-MB-231 [23]): 400 nM
Structure (SMILES): CCOC(=O)NCCCCNC(=O)C1=NO[C@]2(C=C(Br)C(OC)=C(Br)[C@@H]2O)C1 [SUBEREAMOLLINE A]
- Activity (MDA-MB-231 [22]): 38%
- Activity (MDA-MB-231 [24]): 52%

- IC50 (MDA-MB-231 [13]): 29 µM
- IC50 (A549 [14]): 29 µM
- IC50 (HT-29 [15]): 30 µM
Structure (SMILES): CC[C@H](C)[C@@H]1NC(=O)[C@@H](C(O)C(C)C)NC(=O)[C@H](Cc2ccc(O)cc2)NC(=O)[C@H]([C@H](C)O)NC(=O)[C@@H](C)NC(=O)[C@H](CC(C)C)NC(=O)[C@H](Cc2ccc(O)cc2)NC(=O)[C@H](Cc2ccccc2)NC1=O (some centres undefined)
